From patent US20090263472A1, “ENDOTHELIN RECEPTOR ANTAGONIST DERIVATIVES” (NICOX S.A., priority 2006, published 2009) come the findings set out here.

Assay [1] deals with spontaneously hypertensive rats (SHR). In words: Antihypertensive activity in vivo, tail-cuff systolic blood pressure. Conditions: for Δ SBP (Systolic Blood Pressure) 1 hr / Δ SBP (Systolic Blood Pressure) 3 hrs / Δ SBP (Systolic Blood Pressure) 6 hrs: p.o., delta vs own baseline, bosentan 100 mpk, compound of EX. 1 equimolar dose; for Δ SBP (Systolic Blood Pressure) 1 hr: 1 hr after treatment; for Δ SBP (Systolic Blood Pressure) 3 hrs: 3 hrs after treatment; for Δ SBP (Systolic Blood Pressure) 6 hrs: 6 hrs after treatment. The arrangement: species or system rat. How it is done: Ten days prior to the beginning of the experiment, spontaneously hypertensive rats (SHR) are trained daily for the measurement of blood pressure by the tail-cuff method ([…] et Al.; Am. J. Physiol. Heart Circ. Physiol 286: […]-[…], 2004) using model BP-2000 Blood Pressure Analysis System from U.Basile (Comerio, VA Italy). Each animal is placed in individuals cages into a warming cupboard (37° C.) for 15 minutes. […] Average of blood pressure values from individual rats are evaluated from 3/5 different consecutive measurements. […] The data are processed both as the absolute value or as a delta between the absolute value and its own baseline.

Assay [2] relates to isolated rabbit thoracic aorta preparations. Put plainly: Studies on vascular tone: vasorelaxation of noradrenaline-precontracted aortic rings. The settings on record: for relaxation of precontracted aortic rings (in words): cumulative concentration-response curve, noradrenaline 1 μM precontraction. In kind it is cell-based.

With `COc1ccccc1Oc1c(NS(=O)(=O)c2ccc(C(C)(C)C)cc2)nc(-c2ncccn2)nc1OCCO` [Bosentan, reference compound], in assay [1], the “Δ SBP (Systolic Blood Pressure) 1 hr” value is recorded as 0 mmHg, the “Δ SBP (Systolic Blood Pressure) 3 hrs” value came to 6 mmHg and the “Δ SBP (Systolic Blood Pressure) 6 hrs” value is on record as −1 mmHg. Also, the “EC50 (μM) ± sem” value in assay [2] (concentration producing 50% of maximum relaxation, aortic rings contracted with noradrenaline 1 μM, functional endothelium) was “no effect”. In assay [2], the “relaxation of precontracted aortic rings (in words)” value is on record as “did not produce relaxation at any of the concentration tested”.
By EC50 is commonly meant the concentration that produces a half-maximal response. As to `COc1ccccc1Oc1c(NS(=O)(=O)c2ccc(C(C)(C)C)cc2)nc(-c2ncccn2)nc1OCCOC(=O)CCCO[N+](=O)[O-]` [Compound of EX. 1], in assay [1] (oral administration), the “reduction in blood pressure (in words)” value is “able to induce a clear reduction in blood pressure”. In addition, in assay [1], the “Δ SBP (Systolic Blood Pressure) 1 hr” value is given as −8 mmHg, the “Δ SBP (Systolic Blood Pressure) 3 hrs” value is recorded as −18 mmHg and the “Δ SBP (Systolic Blood Pressure) 6 hrs” value is −6 mmHg. Besides, in assay [2] (concentration producing 50% of maximum relaxation, aortic rings contracted with noradrenaline 1 μM, functional endothelium, read-out: EC50 (μM) ± sem), the EC50 stood at 33.9 ± 2.5 µM. For the same compound, the “relaxation of precontracted aortic rings (in words)” value in assay [2] is listed as “able to induce relaxation in a concentration-dependent manner”.
